From PubChem BioAssay AID328 (DTP/NCI, 2004)
Several values for one entry are separate records, joined by “and”; a condition that tells them apart may be missing. Equal values may be shown once. Toxic doses and inconclusive results are not listed.

System: BDF1 mice, P388 leukemia ip, median survival T/C
Experiment: NCI In Vivo Anticancer Drug Screen. Data for tumor model P388 Leukemia (intraperitoneal) in B6D2F1 (BDF1) mice
Conditions: endpoint: median survival time, higher = longer survival
Outline: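 In tumour-bearing mice, survival after compound treatment is set against the vehicle group and given as a quotient.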

[1] = dose: 50.0 mg/kg/injection, schedule: Q01DX009 (ip), vehicle: saline
[2] = dose: 100.0 mg/kg/injection, schedule: Q01DX009 (ip), vehicle: saline with Tween-80
[3] = dose: 200.0 mg/kg/injection, schedule: Q01DX009 (ip), vehicle: saline with Tween-80
[4] = dose: 400.0 mg/kg/injection, schedule: Q01DX009 (ip), vehicle: saline with Tween-80
[5] = dose: 6.25 mg/kg/injection, schedule: Q04DX003 (ip), vehicle: saline with Tween-80
[6] = dose: 12.5 mg/kg/injection, schedule: Q04DX003 (ip), vehicle: saline with Tween-80
[7] = dose: 100.0 mg/kg/injection, schedule: Q04DX003 (ip), vehicle: Klucel (hydroxypropylcellulose) (HPC)
[8] = dose: 100.0 mg/kg/injection, schedule: Q04DX003 (ip), vehicle: saline with Tween-80
[9] = dose: 200.0 mg/kg/injection, schedule: Q04DX003 (ip), vehicle: saline with Tween-80
[10] = dose: 400.0 mg/kg/injection, schedule: Q04DX003 (ip), vehicle: saline with Tween-80

In the case of `C=CC(=O)NCCCC(=O)O`, the T/C [1] is reported as 94 % of control, the T/C (dose: 100.0 mg/kg/injection, schedule: Q01DX009 (ip), vehicle: saline) is reported as 91 % of control and the T/C (dose: 200.0 mg/kg/injection, schedule: Q01DX009 (ip), vehicle: saline) is reported as 100 % of control.

For `OC(CCl)C(O)C(O)C(O)CCl` (stereo not given), the T/C [2] was 100 % of control, the T/C [3] was 113 % of control and the T/C [4] was 100 % of control.

For `COC1=CCC23C(=O)C=CC(=O)C2(C1)C(=O)c1ccccc1C3=O` (stereo not given), the T/C (dose: 3.12 mg/kg/injection, schedule: Q04DX003 (ip), vehicle: saline with Tween-80) was 105 % of control, the T/C [5] was 113 % of control and the T/C [6] was 113 % of control.

In the case of `CC1(C)N=C(N)N=C(N)N1c1ccc(OCC(=O)N2CCOCC2)cc1`, the T/C (dose: 25.0 mg/kg/injection, schedule: Q01DX009 (ip), vehicle: saline) is reported as 113 % of control and the T/C [1] is reported as 113 % of control.

`CC(C(=O)O)N1C(=O)c2ccccc2C1=O` (stereo not given) was tested, and the T/C (dose: 100.0 mg/kg/injection, schedule: Q01DX009 (ip), vehicle: Klucel (hydroxypropylcellulose) (HPC)) was 109 % of control, the T/C [7] was 100 % of control and the T/C (dose: 200.0 mg/kg/injection, schedule: Q01DX009 (ip), vehicle: Klucel (hydroxypropylcellulose) (HPC)) was 109 % of control. For the same compound, the T/C (dose: 200.0 mg/kg/injection, schedule: Q04DX003 (ip), vehicle: Klucel (hydroxypropylcellulose) (HPC)) was 104 % of control, the T/C (dose: 400.0 mg/kg/injection, schedule: Q01DX009 (ip), vehicle: Klucel (hydroxypropylcellulose) (HPC)) was 118 % of control and the T/C (dose: 400.0 mg/kg/injection, schedule: Q04DX003 (ip), vehicle: Klucel (hydroxypropylcellulose) (HPC)) was 100 % of control.

`Cc1cc(N(C)C)c(C=O)c(C)c1C=O` was tested, and the T/C (dose: 100.0 mg/kg/injection, schedule: Q04DX002 (ip), vehicle: saline with Tween-80) was 113 % of control, the T/C (dose: 200.0 mg/kg/injection, schedule: Q04DX002 (ip), vehicle: saline with Tween-80) was 110 % of control and the T/C (dose: 400.0 mg/kg/injection, schedule: Q04DX002 (ip), vehicle: saline with Tween-80) was 87 % of control.

`O=C(CCl)N1c2ccccc2Oc2cc3ccccc3cc21` was tested, and the T/C [2] was 104 % of control, the T/C [8] was 104 % of control and the T/C [3] was 90 % of control. For the same compound, the T/C [9] was 100 % of control, the T/C [4] was 104 % of control and the T/C [10] was 113 % of control.

In the case of `COC(=O)C(Br)C(Br)c1ccc(-c2ccccc2)cc1` (stereo not given), the T/C [8] is reported as 92 % of control, the T/C [9] is reported as 89 % of control and the T/C [10] is reported as 104 % of control.

`Cc1ccc(C)c(CN(C)C)c1O` was tested, and the T/C (dose: 25.0 mg/kg/injection, schedule: Q04DX003 (ip), vehicle: Klucel (hydroxypropylcellulose) (HPC)) was 118 % of control, the T/C (dose: 50.0 mg/kg/injection, schedule: Q04DX003 (ip), vehicle: Klucel (hydroxypropylcellulose) (HPC)) was 100 % of control and the T/C [7] was 100 % of control.

With `Cc1c(O)ccc([N+](=O)[O-])c1O` the T/C (dose: 6.25 mg/kg/injection, schedule: Q01DX009 (ip), vehicle: saline with Tween-80) was 91 % of control, the T/C [5] was 104 % of control and the T/C (dose: 12.5 mg/kg/injection, schedule: Q01DX009 (ip), vehicle: saline with Tween-80) was 100 % of control. The T/C [6] was 91 % of control, the T/C (dose: 25.0 mg/kg/injection, schedule: Q01DX009 (ip), vehicle: saline with Tween-80) was 91 % of control and the T/C (dose: 25.0 mg/kg/injection, schedule: Q04DX003 (ip), vehicle: saline with Tween-80) was 104 % of control.

In the case of `O=C1C=CC(=O)N1c1ccc([N+](=O)[O-])cc1`, the T/C (dose: 5.25 mg/kg/injection, schedule: Q01DX009 (ip), vehicle: Klucel (hydroxypropylcellulose) (HPC)) is reported as 90 % of control, the T/C (dose: 7.5 mg/kg/injection, schedule: Q04DX003 (ip), vehicle: Klucel (hydroxypropylcellulose) (HPC)) is reported as 116 % of control and the T/C (dose: 10.5 mg/kg/injection, schedule: Q01DX009 (ip), vehicle: Klucel (hydroxypropylcellulose) (HPC)) is reported as 90 % of control. For the same compound, the T/C (dose: 15.0 mg/kg/injection, schedule: Q04DX003 (ip), vehicle: Klucel (hydroxypropylcellulose) (HPC)) was 95 % of control.

With `COc1cccc2c1C(=O)c1c(O)c3c(c(O)c1C2=O)C[C@@](O)(C(C)=O)C[C@@H]3OC(=O)CCN` the T/C (dose: 1.56 mg/kg/injection, schedule: Q01DX009 (ip), vehicle: water) was 100 % of control and 123 % of control, the T/C (dose: 3.12 mg/kg/injection, schedule: Q01DX009 (ip), vehicle: water) was 93 % of control and the T/C (dose: 6.25 mg/kg/injection, schedule: Q01DX009 (ip), vehicle: water) was 169 % of control.
